Test results as given in patent publication US7812042B2, “Pharmaceutical compositions and therapeutic applications for the use of a novel vitamin B12 derivative, N-acetyl-L-cysteinylcobalamin” (priority 2006, dated 2010).
“And” between values parts separate entries of the source, which are not always exact repeats. Equal values may be shown once.

How the values were obtained:
U937 (monocytes) = test: Survival of U937 cells at variable concentration of Hcy; format: cell-based; conditions: NACCbl 30 μM, NAC 75 μM, CNCbl 15 μM, folate 30 μM; especially at higher homocysteine concentrations
Protocol: Additional cell studies were conducted using Jurkat (T-cells) and U937 (monocyte) cell lines. These experiments confirmed that other cell types are killed by homocysteine, although these cell lines are not as sensitive as the SK-HEP-1 cell line discussed in the experiments above and are thus more resistant to homocysteine. Cells were exposed to NACCbl 30 μM, NAC 75 μM, CNCbl 15 μM, and folate 30 μM. […] In these Figures, the monocytes are N=6 and concentrations are as follows: NACCbl 30 μM, NAC 75 μM, CNCbl 15 μM, Folate 30 μM

SK-HEP-1 cells [1] = test: NACCbl protection from homocysteine with Hsp32/Hsp70 inhibited by Sn(IX) protoporphyrin, quercitin or siRNA (MTS assay); format: cell-based, Human; conditions: for cell viability (MTS), raw readings (FIG. 11): NACCbl 30 μM pre-treatment two hours with/without Sn(IX)PP, quercetin, replicates 1-6
Text: siRNAs for human HO-1 were synthesised in 2′-deprotected, duplexed, desalted and purified form by Dharmacon Research Inc., published sequences from Zhang et al., (Zhang, Shan et al. 2004). Human Hsp70 primers were from proprietary sequences, and all control non-targeting primer sequences were also synthesised by Dharmacon Research Inc.
Transfection was optimised using a standard siControl Tox protocol. All transfection experiments included non-targeted siRNA.
Cells were trypsinized and plated into 12- or 96-well plates at cell density of 2×10^5, then incubated for 24 hours until adherent. Complexed siRNA and transfection agent at 100 nm was added directly to each experimental well. Plates were incubated at 37° C. for 32.5 hours for mRNA gene analysis experiments or 72 hours for protein analysis by Western Blot.
Complexed siRNA and transfection agent was added to each well of either 12- or 96-well plates. Cells were then trypsinized and added directly into each test well at cell density of 2×10^5. Plates were incubated at 37° C. for 32.5 hours for mRNA gene analysis experiments or 72 hours for protein analysis by Western Blot.
Hsp32 was inhibited using either Sn (IX) protoporhyrin or using an siRNA which specifically knocks out Hsp32. Hsp70 was inhibited using quercitin or using an siRNA which specifically knocks out Hsp70. In addition, two methods were used to inhibit both Hsp32 and Hsp70: chemically Sn (IX) protoporphyrin plus quercitin was used; and then, directly, a combination of the siRNA for both genes was used simultaneously.

[2] = Decomposition of thiolatocobalamins in PBS at 37° C. monitored by UV/Vis spectrophotometry; format: physicochemical; conditions: decomposition in PBS at 37° C.
Protocol: The decomposition of GSCbl, NACCbl, and HcyCbl in PBS at 37° C. was monitored by UV/Vis spectrophotometry.

SK-HEP-1 cells [3] = test: Protection of endothelial cells from homocysteine-induced cell death (MTS assay, absorbance at 490 nm; includes comparison of NACCbl, NAC, cyanocobalamin+NAC, free thiols, other cobalamins, folate); format: cell-based, Human; conditions: for Absorbance at 490 nm, Mean (n = 6) / Absorbance at 490 nm (n = 6): NACCbl 30 μM; for Absorbance at 490 nm (n = 6): replicates Y1-Y6
Protocol: The effect of a constant concentration of NACCbl and GSCbl to protect cells against variable concentrations of homocysteine was assessed. […] Cell viability was determined by MTS® assay. Data shown in FIG. 4 are representative of means ±SE of 6 independent samples. FIG. 4 illustrates that NACCbl (▪) and GSCbl (▴) protect endothelial cells from the effect of homocysteine. […] Cell viability was determined by MTS® assay. […] There was a decrease in protection as homocysteine concentration increased, but there was still ˜60% survival at 50 μM homocysteine.
The data was normalized (log 2 and log 10) as shown in FIGS. 16 and 17 and Tables 16 and 17, respectively, below.

CC(=O)NC(C[S-])C(=O)O.CC1=C2N=C(C=C3N=C(C(C)=C4[N-]C(C(CC(N)=O)C4(C)CCC(=O)NCC(C)OP(=O)([O-])OC4C(CO)OC(n5cnc6cc(C)c(C)cc65)C4O)C4(C)N=C1C(CCC(N)=O)C4(C)CC(N)=O)C(CCC(N)=O)C3(C)C)C(CCC(N)=O)C2(C)CC(N)=O.[Co+3] [NACCbl, N-acetyl-L-cysteinylcobalamin]
protection of U937 cells from death by homocysteine, comparison (U937 (monocytes)): more effective at protecting these cells from death than NAC, CN Cbl or folate
cell viability (MTS), raw readings (FIG. 11) (SK-HEP-1 cells [1]; Hcy 0): 2.885 and 2.698 and 2.821 and 2.771 and 2.691 and 2.7
cell viability (MTS), raw readings (FIG. 11) (SK-HEP-1 cells [1]; Hcy 1.78 (μM) two hours, where named): 2.647 and 2.551 and 2.789 and 2.89 and 2.549 and 2.611
cell viability (MTS), raw readings (FIG. 11) (SK-HEP-1 cells [1]; Hcy 3.125 (μM) two hours, where named): 2.453 and 2.338 and 2.36 and 2.317 and 2.418 and 2.535
cell viability (MTS), raw readings (FIG. 11) (SK-HEP-1 cells [1]; Hcy 6.25 (μM) two hours, where named): 2.41 and 2.4 and 2.322 and 2.201 and 2.115 and 2.187
cell viability (MTS), raw readings (FIG. 11) (SK-HEP-1 cells [1]; Hcy 12.5 (μM) two hours, where named): 2.21 and 2.11 and 2.045 and 2.065 and 2.101 and 2.324
cell viability (MTS), raw readings (FIG. 11) (SK-HEP-1 cells [1]; Hcy 25 (μM) two hours, where named): 2.1 and 2.19 and 1.879 and 1.937 and 1.779 and 1.837
cell viability (MTS), raw readings (FIG. 11) (SK-HEP-1 cells [1]; Hcy 50 (μM) two hours, where named): 1.678 and 1.832 and 1.881 and 1.73 and 1.74 and 1.855
cell viability (MTS), raw readings (FIG. 11) (SK-HEP-1 cells [1]; Hcy 100 (μM) two hours, where named): 1.678 and 1.592 and 1.694 and 1.773 and 1.732 and 1.639
cell viability (MTS), raw readings (FIG. 11) (SK-HEP-1 cells [1]; Hcy 200 (μM) two hours, where named): 1.378 and 1.167 and 1.33 and 1.456 and 1.491 and 1.537
effect of inhibition of both Hsp32 and Hsp70 together on protection by NACCbl (SK-HEP-1 cells [1]; both methods (chemically and directly), NACCbl 30 μM): totally removed protection
t1/2 [2]: No decomposition within 20 hours
survival (SK-HEP-1 cells [3]; 30 μM cobalamin pre-incubation two hours, then 50 μM homocysteine two hours): ~60%
pre-incubation concentration that protected cells from homocysteine-induced cell death (SK-HEP-1 cells [3]; 2 hours pre-incubation, then 30 μM homocysteine 24 hours): ≥ 2.0 µM
Absorbance at 490 nm, Mean (n = 6) (SK-HEP-1 cells [3]; Conc. Hcy 0.000, NAC 75 μM): 2.761
Absorbance at 490 nm, Mean (n = 6) (SK-HEP-1 cells [3]; Conc. Hcy 1.780 (μM), NAC 75 μM): 2.673
Absorbance at 490 nm, Mean (n = 6) (SK-HEP-1 cells [3]; Conc. Hcy 3.125 (μM), NAC 75 μM): 2.404
Absorbance at 490 nm, Mean (n = 6) (SK-HEP-1 cells [3]; Conc. Hcy 6.250 (μM), NAC 75 μM): 2.273
Absorbance at 490 nm, Mean (n = 6) (SK-HEP-1 cells [3]; Conc. Hcy 12.500 (μM), NAC 75 μM): 2.142
Absorbance at 490 nm, Mean (n = 6) (SK-HEP-1 cells [3]; Conc. Hcy 25.000 (μM), NAC 75 μM): 1.954
Absorbance at 490 nm, Mean (n = 6) (SK-HEP-1 cells [3]; Conc. Hcy 50.000 (μM), NAC 75 μM): 1.786
Absorbance at 490 nm, Mean (n = 6) (SK-HEP-1 cells [3]; Conc. Hcy 100.000 (μM), NAC 75 μM): 1.685
Absorbance at 490 nm, Mean (n = 6) (SK-HEP-1 cells [3]; Conc. Hcy 200.000 (μM), NAC 75 μM): 1.393
Absorbance at 490 nm (n = 6) (SK-HEP-1 cells [3]; Conc. of Hcy 0.000, NAC 75 μM): 2.885 and 2.698 and 2.821 and 2.771 and 2.691 and 2.700
Absorbance at 490 nm (n = 6) (SK-HEP-1 cells [3]; Conc. of Hcy 1.780, NAC 75 μM): 2.647 and 2.551 and 2.789 and 2.890 and 2.549 and 2.611
Absorbance at 490 nm (n = 6) (SK-HEP-1 cells [3]; Conc. of Hcy 3.125): 2.453 and 2.338 and 2.360 and 2.317 and 2.418 and 2.535
Absorbance at 490 nm (n = 6) (SK-HEP-1 cells [3]; Conc. of Hcy 6.250, NAC 75 μM): 2.410 and 2.400 and 2.322 and 2.201 and 2.115 and 2.187
Absorbance at 490 nm (n = 6) (SK-HEP-1 cells [3]; Conc. of Hcy 12.500, NAC 75 μM): 2.210 and 2.110 and 2.045 and 2.065 and 2.101 and 2.324
Absorbance at 490 nm (n = 6) (SK-HEP-1 cells [3]; Conc. of Hcy 25.000, NAC 75 μM): 2.100 and 2.190 and 1.879 and 1.937 and 1.779 and 1.837
